Assay results taken from ChEMBL document CHEMBL1155045, “Apoptosis-inducing galactolipids from a cultured marine diatom, Phaeodactylum tricornutum” (2008).

Columns and labels:
Type in all cases: functional
[1] = Effect on apoptosis-inducing gene deffective mouse D3 cells assessed as cell growth at 64 uM after 48 hrs by MTT assay; details: D3, 48 h, read-out: Activity
[2] = Induction of apoptosis in mouse W2 cells assessed as cell death at 64 uM after 48 hrs by MTT assay
[3] = Effect on apoptosis-inducing gene deffective mouse D3 cells assessed as cell growth at 52 uM after 48 hrs by MTT assay; details: D3, 48 h, read-out: Activity
[4] = Induction of apoptosis in mouse W2 cells assessed as cell death at 52 uM after 48 hrs by MTT assay

SMILES | growth at 64 µM [1] [%] | Activity [2] [%] | growth at 52 µM [3] [%] | Activity [4] [%]
CC/C=C\C/C=C\C/C=C\C/C=C\C/C=C\CC(=O)OC[C@H](CO[C@@H]1O[C@H](CO)[C@H](O)[C@H](O)C1O)OC(=O)CCCC/C=C\C/C=C\C/C=C\C/C=C\CC (single isomer, unassigned) | 14 | 18 |  | 
CC/C=C\C/C=C\C/C=C\C/C=C\C/C=C\CCCC(=O)OC[C@H](CO[C@@H]1O[C@H](CO)[C@H](O)[C@H](O)C1O)OC(=O)CCCC/C=C\C/C=C\C/C=C\CCC (single isomer, unassigned) |  |  | 10 | 18
